A word on the EC50: it is the concentration giving half of the maximal effect.

Experimental findings from patent US20080026996A1, “Selective Vpac2 Receptor Reptide Agonists” (ELI LILLY AND COMPANY, priority 2004, published 2008) are described below.

Where “and” joins values, the source holds several entries; their conditions need not be identical. Equal values may be shown once. Where no end group is shown, it is not given here. [ ]: non-standard residue; d: D form. The star is where a group is joined. Hexanoyl = CCCCCC(=O)* Some results are limits rather than exact numbers.

The target of data set [1] is T1, human VPAC2 (Homo sapiens, UniProt P41587).
T1 construct: expressed in transfected cells
T1 sequence (P41587 24-438): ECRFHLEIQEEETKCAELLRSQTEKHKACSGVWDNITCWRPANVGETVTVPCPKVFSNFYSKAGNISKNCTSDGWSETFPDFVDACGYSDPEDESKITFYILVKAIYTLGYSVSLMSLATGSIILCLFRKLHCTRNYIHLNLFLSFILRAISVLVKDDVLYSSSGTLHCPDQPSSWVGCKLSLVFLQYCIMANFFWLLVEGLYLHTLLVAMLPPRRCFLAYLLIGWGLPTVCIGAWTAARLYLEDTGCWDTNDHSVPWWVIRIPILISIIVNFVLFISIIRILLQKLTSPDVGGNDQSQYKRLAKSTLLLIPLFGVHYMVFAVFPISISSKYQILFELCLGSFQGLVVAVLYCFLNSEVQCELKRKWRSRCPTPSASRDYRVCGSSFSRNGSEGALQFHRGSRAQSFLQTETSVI
The data set can be described thus: DiscoveRx cAMP in vitro potency, CHO-S cell line stably expressing human VPAC2 receptor. The settings on record: cAMP generation; mean of two independent runs. It counts as cell-based. As for the experimental part: (§1) Also, the cells are washed twice. The cells are incubated in assay buffer plus IBMX for 15 minutes at room temperature. […] The stimuli are present for 30 minutes. Then, the assay buffer is gently removed. […] At day 3, the assay described above for the VPAC2 receptor cell line is performed.

Data set [2] concerns the target T1, human VPAC2. The data set can be described thus: Filter binding assay, membranes of stable VPAC2 cell line, 125I-labeled VIP tracer (Table 2). Particulars: read-out: Human VPAC2 Receptor Binding. A digest of the protocol: (§2)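 Scintillation counting of filter-retained radioligand gave the read-out. Compounds competed with the labelled tracer (about 40000 cpm) for 2.5 μg membranes during 1 hour of shaking in HEPES pH 7.4 buffer containing 0.5% BSA.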

A further data set has as its target T2, human VPAC1 (Homo sapiens, UniProt P32241).
T2 sequence (P32241 31-457): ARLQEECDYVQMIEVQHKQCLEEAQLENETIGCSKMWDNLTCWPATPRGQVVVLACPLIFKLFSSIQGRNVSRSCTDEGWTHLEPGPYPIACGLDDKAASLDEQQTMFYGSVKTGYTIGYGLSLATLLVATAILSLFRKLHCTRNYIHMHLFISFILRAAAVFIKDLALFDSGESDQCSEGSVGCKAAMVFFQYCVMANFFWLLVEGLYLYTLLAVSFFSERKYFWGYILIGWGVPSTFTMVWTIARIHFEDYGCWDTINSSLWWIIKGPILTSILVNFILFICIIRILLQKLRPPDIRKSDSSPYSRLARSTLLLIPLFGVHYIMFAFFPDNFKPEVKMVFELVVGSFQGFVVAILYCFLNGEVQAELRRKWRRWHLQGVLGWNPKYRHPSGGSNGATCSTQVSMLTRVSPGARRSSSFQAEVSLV
The data set can be described thus: Filter binding assay, membranes of cells transiently transfected with human VPAC1, 125I-labeled VIP tracer (Table 2). The settings on record: read-out: Human VPAC1 Receptor Binding. Also noted: expressed in transfected cells. A digest of the protocol: as §2

The target in data set [3] is T3, human PAC1 (Homo sapiens, UniProt P41586).
T3 sequence (P41586 21-468): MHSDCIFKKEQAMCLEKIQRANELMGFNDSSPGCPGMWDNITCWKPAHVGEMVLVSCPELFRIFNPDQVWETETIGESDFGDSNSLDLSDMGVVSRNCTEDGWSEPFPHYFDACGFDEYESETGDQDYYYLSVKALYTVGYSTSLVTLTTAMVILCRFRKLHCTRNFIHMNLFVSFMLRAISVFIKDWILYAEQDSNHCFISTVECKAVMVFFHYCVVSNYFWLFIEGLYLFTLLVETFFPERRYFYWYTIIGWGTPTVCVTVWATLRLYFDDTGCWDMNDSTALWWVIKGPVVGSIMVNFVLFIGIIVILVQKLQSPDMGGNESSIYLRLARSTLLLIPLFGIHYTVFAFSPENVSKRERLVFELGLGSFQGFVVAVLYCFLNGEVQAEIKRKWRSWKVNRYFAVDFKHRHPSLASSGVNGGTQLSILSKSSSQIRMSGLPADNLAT
The data set can be described thus: DiscoveRx cAMP in vitro potency, CHO-PO cells transiently transfected with human PAC1 receptor. Also noted: expressed in transfected cells; host or cells: CHO-PO, transient (Lipofectamine). It counts as cell-based. Particulars: cAMP generation; mean of two independent runs; read-out: Human PAC1 Receptor: DiscoveRx EC50. As for the experimental part: as §1

The target in another data set is T4, DPP-IV (Sus scrofa, UniProt P22411).
T4 construct: purchased Sigma
The data set can be described thus: DPP-IV HPLC assay: in vitro incubation with purified dipeptidyl-peptidase IV. It counts as in vitro ADME, Porcine. The procedure:
Part 1: Formulation of Selective VPAC2 Receptor Peptide Agonists: […]
Approximately 2 mg of lyophilized peptide is weighed and dissolved in approximately 1.6 mL de-ionized water. […] After incubation at room temperature for 30 minutes, 1/10th of the original volume 10×PBS is added. The pH is adjusted to between pH 7.2 and 7.6. The peptide solution is filtered through a 0.22 μm Millex-GV syringe filter (Millipore, Bedford Mass., USA). The peptide concentration is determined through absorption at 280 nm. The peptide concentration is then adjusted to 100 μM. The peptides are frozen at −20° C. for further use.
Part 2: In Vitro Incubation of Selective VPAC2 Receptor Peptide Agonists with Purified Dipeptidyl-Peptidase IV (DPP-IV):
The stability of selective VPAC2 receptor peptide agonists against proteolysis by DPP-IV is determined using 100 μL of a 100 μM peptide solution in 1×PBS. A 10 μL solution is removed and quenched with 40 μL of 0.1% trifluoroacetic acid (TFA)/20% acetonitrile (ACN). This solution (20 μL) is analyzed by reversed-phase HPLC. The reversed-phase analysis consists of a Zorbax 300SB-C8 column (3.5 micron, 4.6×50 mm, Alltech Associates, Inc., Deerfield Ill., USA) running a 15-40% B gradient over 15 minutes at 60° C. where A-buffer is 0.1% (v/v) TFA in water and B-buffer is 0.085% (v/v) TFA in ACN. The peak area is integrated. This peak area serves as an internal control as 100% intact peptide.
A 10 μL aliquot of a 1.12 mU/μL solution of DPP-IV (Sigma, St. Louis, La., USA) is added to 90 μL of a 100 μM solution of peptide, resulting in a substrate concentration of 90 μM peptide. The reaction mixture is then stored at 37° C. At various time-points, 10 μL of solution is removed, quenched with 40 μL 0.1% TFA/20% ACN, and analyzed by reversed-phase HPLC as described above. The remaining full length peptide concentration (nM) at each timepoint, except time=0, is calculated using following formula: [formula]
For the time=0 timepoint, the concentration (nM) is calculated using the following formula: [formula]

In data set [4] the target is T1, human VPAC2. The data set can be described thus: Alpha screen cAMP in vitro potency, human VPAC2 receptor. It counts as cell-based. Particulars: cAMP generation; single result from two analyses performed in a single run; read-out: Human VPAC2 Receptor: Alpha Screen EC50. A digest of the protocol:
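Stimulated cAMP accumulation is read by AlphaScreen after 60 min exposure of 50,000 non-enzymatically harvested cells to compound, followed by lysis with donor beads.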

For data set [5], the target named is T3, human PAC1. The data set can be described thus: Filter binding assay, membranes of cells transiently transfected with human PAC1, 125I-labeled PACAP-27 tracer (Table 2). Also noted: expressed in transfected cells. Particulars: read-out: Human PAC1 Receptor Binding. A digest of the protocol:
as §2

T4 sequence (P22411 whole entry): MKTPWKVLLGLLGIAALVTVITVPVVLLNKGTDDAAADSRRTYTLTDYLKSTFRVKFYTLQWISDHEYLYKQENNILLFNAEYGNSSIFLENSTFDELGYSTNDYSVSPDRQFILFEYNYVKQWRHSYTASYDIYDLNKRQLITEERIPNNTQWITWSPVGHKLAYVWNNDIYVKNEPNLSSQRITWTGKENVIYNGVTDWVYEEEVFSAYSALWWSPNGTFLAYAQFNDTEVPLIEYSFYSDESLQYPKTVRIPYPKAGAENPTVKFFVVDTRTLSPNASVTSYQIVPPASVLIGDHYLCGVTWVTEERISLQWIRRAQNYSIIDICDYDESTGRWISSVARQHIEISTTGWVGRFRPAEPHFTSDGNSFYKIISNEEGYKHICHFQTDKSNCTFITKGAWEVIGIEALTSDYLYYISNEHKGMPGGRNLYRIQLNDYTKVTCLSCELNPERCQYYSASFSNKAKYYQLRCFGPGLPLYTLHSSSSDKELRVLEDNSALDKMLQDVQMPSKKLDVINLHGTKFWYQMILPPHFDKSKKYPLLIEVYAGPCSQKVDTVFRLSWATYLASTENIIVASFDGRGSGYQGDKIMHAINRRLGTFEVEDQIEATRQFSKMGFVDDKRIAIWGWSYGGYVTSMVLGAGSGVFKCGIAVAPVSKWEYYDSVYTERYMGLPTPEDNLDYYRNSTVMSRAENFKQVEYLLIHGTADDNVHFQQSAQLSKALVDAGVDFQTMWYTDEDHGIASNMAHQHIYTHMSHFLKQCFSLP

As for “H-HSDAVFTDNYTRLRKQVAARKYLQSIKNKRYGGPSSGAPPPS [Agonist P20]”, the 50% effective concentration (EC50) at human VPAC2 [1] was 2.13 nM; on human PAC1 [3], over 25 nM. The values for the IC50 on human VPAC2 [2] and at human VPAC1 were 2.5 nM and 98.7 nM, respectively.

Turning to “HSDIVFTDNYTRLRKQVAAKKYLQSIKNKRYGGPSSGAPPPS [Agonist P50]”, the EC50 at human VPAC2 [1] was found to be 19.3 nM.

“HSDATFTDNYTRLRKQVAAKKYLQSIKNKRYGGPSSGAPPPS [Agonist P62]”: the concentration giving a half-maximal response (EC50) was found to be 13.2 nM on human VPAC2 [1] and 137 nM at human PAC1 [3].

With “Hexanoyl-HSDAVFTDNYTRLLAKLALQKYLQSIKNKRYGGPSSGAPPPS [VPAC2-P119]”, the “Concentration (nM) of Remaining Main Peak by RP-HPLC after Incubation of Peptide with Purified Porcine DPP-IV” value at DPP-IV (Time = 0 hours at 37° C.) is given as 9.0 nM; at DPP-IV (Time = 2 hours at 37° C.) it was 8.0 nM; at DPP-IV (Time = 6 hours at 37° C.), 6.6 nM; on DPP-IV (Time = 24 hours at 37° C.), 4.2 nM.

The substance “HSDAVFTDNYTRLRKQVAAKKYLQSIKNGRPSSGAPPPS [Agonist P92]” registered a concentration giving a half-maximal response (EC50) on human VPAC2 [1] of 8.2 nM. Besides, the values for the IC50 on human VPAC2 [2] and on human VPAC1 were 0.86 nM and 74.6 nM, respectively.

As to “H-HTDAVFTDNYTRLRKQVAAKKYLQSIKNKRYGGPSSGAPPPS [Agonist P45]”, the EC50 was 11.6 nM on human VPAC2 [1] and 315 nM at human PAC1 [3].

As for “VPAC2-P44 (HVDAVFTDNYTRLRKQVAAKKYLQSIKNKRYGGPSSGAPPPS; not fully specified (N-terminus))”, the “Concentration (nM) of Remaining Main Peak by RP-HPLC after Incubation of Peptide with Purified Porcine DPP-IV” value is 9.0 nM with DPP-IV (Time = 0 hours at 37° C.); 6.4 nM and 7.9 nM and 4.5 nM and 6.5 nM in the data set with DPP-IV (Time = 2 hours at 37° C.).

Take “Ac-HSDAVFTDNYTRLRKQVAAKKYLQSIKNKRYGGPSSGAPPPS [Agonist P33]”: the EC50 was determined as 0.86 nM at human VPAC2 [1] and 111 nM at human PAC1 [3]. The IC50 stood at 2.31 nM at human VPAC2 [2] and 120 nM at human VPAC1.

On to “HSDAVFTDNYTRAAAKVAAKKYLQSIKNKRYGGPSSGAPPPS [Agonist P88]”, for which the 50% effective concentration (EC50) on human VPAC2 [1] is over 1000 nM. Moreover, the IC50 on human VPAC2 [2] stood at 93.9 nM; on human VPAC1, 979 nM.

As to “H[dA]DAVFTDNYTRLRKQVAAKKYLQSIKNKRYGGPSSGAPPPS [VPAC2-P47]”, the “Concentration (nM) of Remaining Main Peak by RP-HPLC after Incubation of Peptide with Purified Porcine DPP-IV” value at DPP-IV (Time = 0 hours at 37° C.) came to 9.0 nM; on DPP-IV (Time = 2 hours at 37° C.), 7.9 nM; on DPP-IV (Time = 6 hours at 37° C.), 6.1 nM; on DPP-IV (Time = 24 hours at 37° C.) it was 2.8 nM.

Take “HSDAVFTDNYTRLRKQVAAKKYLQSIKNKRYGGPSSGAPPPS [Agonist P6]”: the EC50 at human VPAC2 [4] was 3.19 nM; on human PAC1 [3], over 40 nM. Also, the results for the IC50 at human VPAC2 [2], at human VPAC1 and on human PAC1 [5] were 2.58 nM, 195 nM and 334 nM, respectively.

The substance “H-HSDAVFTDNYTRAKAKVAAKKYLQSIKNKRYGGPSSGAPPPS [Agonist P94]” registered a concentration for a half-maximal effect (EC50) at human VPAC2 [1] of over 1000 nM. Further, the IC50 amounted to 71.5 nM at human VPAC2 [2] and 271 nM at human VPAC1.

Turning to “MHSDAVFTDNYTRLRKQVAAKKYLQSIKNKRYGGPSSGAPPPS [VPAC2-P104]”, the “Concentration (nM) of Remaining Main Peak by RP-HPLC after Incubation of Peptide with Purified Porcine DPP-IV” value at DPP-IV (Time = 0 hours at 37° C.) came to 9.0 nM; at DPP-IV (Time = 2 hours at 37° C.), 7.8 nM; on DPP-IV (Time = 6 hours at 37° C.), 6.6 nM; at DPP-IV (Time = 24 hours at 37° C.) it was 4.1 nM.

For the substance “Hexanoyl-HSDAVFTDNYTRLRKQVAAKKYLQSIKNKRYGGPSSGAPPPS [VPAC2-P31]”, the “Concentration (nM) of Remaining Main Peak by RP-HPLC after Incubation of Peptide with Purified Porcine DPP-IV” value on DPP-IV (Time = 0 hours at 37° C.) was 9.0 nM; on DPP-IV (Time = 2 hours at 37° C.), 8.0 nM and 7.0 nM and 6.7 nM; on DPP-IV (Time = 6 hours at 37° C.), 6.7 nM and 6.1 nM and 5.6 nM; on DPP-IV (Time = 24 hours at 37° C.) it was 2.2 nM and 2.6 nM and 3.9 nM.
